Data: patent US20260297060A1, “COMPOUNDS FOR THE DEGRADATION OF MUTANT BRAF” (C4 THERAPEUTICS, INC., priority 2023, published 2026)
Like-named read-outs stand apart in the source and are kept apart here.

How the values were obtained:
[1] = Example 8 pharmacokinetics assay for efficacy study (plasma, liver); assay type: in vivo, BALB/c nude mice; settings: mouse, po, 10 mg/kg, p.o., BID × 10 days
Description: For efficacy study, agents were tested in the A375 human melanoma xenografts model. Compound 8, Compound 26, and Compound 38 were administered to BALB/c nude mice bearing A375 xenografts from day 0 and dosed p.o. twice per day (BID). Compound 8 and Compound 26 were dosed at 10 mg/kg for 21 days. Compound 38 was dosed at 10 mg/kg for 10 days. The known BRAF inhibitor encorafenib was used as a positive control. encorafenib was administered from day 1 and dosed p.o. daily (QD) for 21 days and dosed at 35 mg/kg.
(§1) The plasma samples were collected at predetermined time points for PK analysis. For non-termination plasma collection, blood samples were collected into the 1.5 mL Eppendorf tubes containing 3 μL of 0.5 M EDTA-K2. For termination plasma collection, the mice were euthanized at predetermined time points post the treatment and the blood samples were collected into the 1.5 mL Eppendorf tubes containing 15 μL of 0.5 M EDTA-K2. And then the anticoagulant blood samples were centrifuged at 2,500 g at 4° C. for 15 minutes. The plasma samples were separated into 2 aliquots. The 1st was used for PK analysis, and the 2nd served as backup. The samples were stored at −80° C. before bioanalysis.
(§2) Liver samples were collected at predetermined time points for PK analysis. The left lobe of the liver was dissected out and split into 2 parts. The 1st part was used for PK analysis and the 2nd part served as the backup for the study. The samples were transferred into pre-labeled tubes and quickly froze in liquid nitrogen within 2 minutes after dissection. The samples were stored at −80° C. before bioanalysis.
The harvested plasma and liver samples were processed for pharmacokinetics analysis by LC-MS/MS with a concentration range of 2.0~2000 ng/mL for encorafenib in plasma and liver homogenate, 10.0-10,000 ng/mL for Compound 8 and Compound 38 in plasma and liver homogenate, 20.0~20,000 ng/mL for Compound 26 in plasma and liver homogenate.

[2] = Example 8 pharmacokinetics assay for PKPD study (plasma, tumor, liver); assay type: in vivo, BALB/c nude mice; settings: 10 mg/kg, p.o., single dose; for concentration at 6 h / concentration at 1 h / concentration at 12 h: mouse, po
Description: For the PK and PD study, agents were administered to BALB/c nude mice bearing A375 human melanoma xenografts tumors. encorafenib, Compound 8, Compound 26, Compound 38, and Compound 39 were dosed p.o. once on day 1. Encorafenib was dosed at 35 mg/kg, Compound 8, Compound 26, Compound 38, and Compound 39 were dosed at 10 mg/kg. This study was non-GLP.
as §1
The tumor samples were collected at predetermined time points for PK and WB analysis. The tumor was dissected out and split into 3 parts. The 1st part was used for PK analysis, the 2nd part was used for WB analysis and the last one served as backup for study. The samples were transferred into pre-labeled tubes and quickly froze in liquid nitrogen within 2 minutes after dissection. The samples were stored at −80° C. before bioanalysis.
as §2
The harvested plasma and liver samples were processed for pharmacokinetics analysis by LC-MS/MS with a concentration range of 0.200~200 ng/mL for encorafenib in plasma and liver homogenate, and 0.100-100 ng/ml in tumor homogenate, 1.00-1000 ng/mL for Compound 8 in plasma and 0.500~500 ng/ml in tumor and liver homogenate, 50.0~50,000 ng/mL for Compound 26 and Compound 38 in plasma, 5.0~5000 ng/ml in liver and 2.00~2000 ng/ml in tumor homogenate, 1.00-1000 ng/mL for Compound 39 in plasma and 0.500~500 ng/mL in liver and tumor homogenate.

[3] = liver, read-out: Concentration in Liver (mean ± SEM)
[4] = plasma, read-out: Concentration in Plasma (mean ± SEM)
[5] = tumor, read-out: Concentration in Tumor (mean ± SEM)

Question: Which results are given for `CCN(C)S(=O)(=O)Nc1ccc(F)c(Oc2ccc3ncn([C@H]4COC5(CCC(N6CCC(c7cc8c(cc7F)c(N7CCC(=O)NC7=O)nn8C)C(F)(F)C6)CC5)C4)c(=O)c3c2)c1C#N` (single isomer, unassigned) [Compound 38]?
Answer: concentration at 6 h [1, 3]: 17200 ± 2570 ng/g; concentration at 6 h [1, 4]: 18300 ± 2240 ng/mL; Concentration in Liver (mean ± SEM) ([2]; 12 h, 720 min): 11243 ± 2595 ng/g; Concentration in Plasma (mean ± SEM) ([2]; 24 h, 1440 min): 1797 ± 63.3 ng/mL; Concentration in Tumor (mean ± SEM) ([2]; 24 h, 1440 min): 369 ± 42.6 ng/g; concentration at 6 h [2, 3]: 25500 ± 3820 ng/g; concentration at 1 h [2, 4]: 32000 ± 3960 ng/mL; concentration at 6 h [2, 4]: 16400 ± 1500 ng/mL; concentration at 12 h ([2]; plasma, 12 h, read-out: Concentration in Plasma (mean ± SEM)): 6810 ± 795 ng/mL; concentration at 1 h [2, 5]: 3320 ± 523 ng/g; concentration at 6 h [2, 5]: 3830 ± 736 ng/g; concentration at 12 h ([2]; tumor, 12 h, read-out: Concentration in Tumor (mean ± SEM)): 1990 ± 415 ng/g
